Test [1] deals with T1, S. aureus DNA gyrase (Staphylococcus aureus, UniProt P20831).
T1 construct: purchased Inspiralis (Norwich, UK)
Kind of test: gel-based S. aureus Gyrase Supercoiling assay (Inspiralis). It counts as biochemical. Conditions: gel-based assays by Inspiralis, as detailed in [13]. An excerpt:
[…]. […] IC50 value represents the mean of two to four independent measurements.

In another test the test system is E. coli (ATCC 25922). Kind of test: MIC broth microdilution, E. coli ATCC 25922. It counts as cell-based. Conditions: Escherichia coli, ATCC25922. Here is the method: (§1) Antimicrobial testing was carried out by the broth microdilution method in 96-well plate format following the Clinical and Laboratory Standards Institute (CLSI) guidelines and European Committee on Antimicrobial Susceptibility Testing (EUCAST) recommendations. Bacterial suspension of specific bacterial strain equivalent to 0.5 McFarland turbidity standard was diluted with cation-adjusted Mueller Hinton broth with TES (Thermo Fisher Diagnostic, Landsmeer, The Netherlands), to obtain a final inoculum of 10^5 CFU/mL. Compounds dissolved in DMSO and inoculum were mixed together and incubated for 18–20 h at 35 °C. Suspensions of Mycobacterium sp. were prepared into a tube of Middelbrook 7H9 broth supplemented with 5% OADC (Thermo Scientific, Trek Diagnostic Systems, West Sussex, UK) and incubated for at least 10 days. After incubation the minimal inhibitory concentration (MIC) values were determined by visual inspection as the lowest dilution of compounds showing no turbidity. Tetracycline was used as a positive control on every assay plate.
On the technique in general: Dilution methods test growth across graded concentrations, often in twofold steps.

Test [2] relates to P. aeruginosa RDK 184 (DSM 939). In words: MIC broth microdilution, P. aeruginosa. Conditions: Pseudomonas aeruginosa, DSM939; read-out: MIC P. aeruginosa RDK 184 (DSM 939). The test is classed as cell-based. Here is the method:
as §1

The test system of the next test is HepG2. Kind of test: Metabolic activity assessment (cytotoxicity), HepG2. The test is classed as cell-based. Conditions: Homo sapiens. Here is the method: Cells of the HepG2 line (ATCC® HB-8065™) and HUVEC (ATCC® CRL-1730™) were cultured in Dulbecco’s Modified Eagle Medium (DMEM; Sigma-Aldrich, St. Louis, MO, USA) supplemented with 10% heat-deactivated FBS (Gibco, Grand Island, NE, USA), 2 mM L-glutamine, 100 U/mL penicillin, 100 μg/mL streptomycin (all from Sigma-Aldrich, St. Louis, MO, USA) in a humidified chamber at 37 °C and 5% CO2. The experiments were carried out on passages 7–9 for both cell lines. The tested compounds were dissolved in DMSO and further diluted in culture medium to a desired final concentration. Cells were seeded into 96-well plates at 8 × 10^4 cells/mL (100 μL/well) and incubated for 24 h to attach onto the wells. Cells were treated with 1 μM and 50 μM of each compound of interest or corresponding vehicle as control. […] The metabolic activity was assessed after 72 h treatment using the CellTiter 96 Aqueous One Solution Cell Proliferation Assay (Promega, Madison, WI, USA), in accordance with the manufacturer’s instructions. The absorbance was measured at 492 nm on an automated microplate reader BioTek Synergy HT (BioTek Instruments, Inc., Winooski, VT, USA). Data are presented as the percentage of metabolic activity of control cells stimulated with vehicle or as IC50 value (mean ± SD) from two independent experiments, each conducted in duplicate or triplicate. IC50 values were calculated by a non-linear regression model using Graph Pad Prism 7 software.

For test [3], the target named is T1, S. aureus DNA gyrase. In words: biochemical. It counts as biochemical. Conditions: for LE DNA Gyrase S. aureus: LE = (1.37/HA) × pIC50; for IC50: fluorescence plate supercoiling assay, mean of two to four measurements. Here is the method:
A Gyrase Supercoiling High Throughput Plate assay kit, purchased from Inspiralis (Norwich. UK) was used to determine IC50 values of compounds on S. aureus and E. coli. […] Biotinylated oligonucleotide in wash buffer was immobilized onto the wells, and the excess oligonucleotide was washed off with wash buffer and ultrapure water. […] The reactions were stopped by adding the TF buffer (50 mM NaOAc (pH 4.7), 50 mM NaCl, and 50 mM MgCl2) to allow the triplex formation (biotin-oligonucleotide-plasmid) for additional 30 min. Afterward, the unbound plasmid was washed off using TF buffer, and the solution of Promega Diamond dye in T10 buffer (10 mM Tris-HCl (pH 8.0), 1 mM EDTA) was added. […] IC50 value represents the mean of two to four independent measurements.

The target of test [4] is T2, hERG potassium ion channel (Homo sapiens, UniProt Q12809).
T2 construct: purchased Invitrogen (assay run at TCG Lifesciences Pvt. Ltd.)
T2 sequence (Q12809 whole entry): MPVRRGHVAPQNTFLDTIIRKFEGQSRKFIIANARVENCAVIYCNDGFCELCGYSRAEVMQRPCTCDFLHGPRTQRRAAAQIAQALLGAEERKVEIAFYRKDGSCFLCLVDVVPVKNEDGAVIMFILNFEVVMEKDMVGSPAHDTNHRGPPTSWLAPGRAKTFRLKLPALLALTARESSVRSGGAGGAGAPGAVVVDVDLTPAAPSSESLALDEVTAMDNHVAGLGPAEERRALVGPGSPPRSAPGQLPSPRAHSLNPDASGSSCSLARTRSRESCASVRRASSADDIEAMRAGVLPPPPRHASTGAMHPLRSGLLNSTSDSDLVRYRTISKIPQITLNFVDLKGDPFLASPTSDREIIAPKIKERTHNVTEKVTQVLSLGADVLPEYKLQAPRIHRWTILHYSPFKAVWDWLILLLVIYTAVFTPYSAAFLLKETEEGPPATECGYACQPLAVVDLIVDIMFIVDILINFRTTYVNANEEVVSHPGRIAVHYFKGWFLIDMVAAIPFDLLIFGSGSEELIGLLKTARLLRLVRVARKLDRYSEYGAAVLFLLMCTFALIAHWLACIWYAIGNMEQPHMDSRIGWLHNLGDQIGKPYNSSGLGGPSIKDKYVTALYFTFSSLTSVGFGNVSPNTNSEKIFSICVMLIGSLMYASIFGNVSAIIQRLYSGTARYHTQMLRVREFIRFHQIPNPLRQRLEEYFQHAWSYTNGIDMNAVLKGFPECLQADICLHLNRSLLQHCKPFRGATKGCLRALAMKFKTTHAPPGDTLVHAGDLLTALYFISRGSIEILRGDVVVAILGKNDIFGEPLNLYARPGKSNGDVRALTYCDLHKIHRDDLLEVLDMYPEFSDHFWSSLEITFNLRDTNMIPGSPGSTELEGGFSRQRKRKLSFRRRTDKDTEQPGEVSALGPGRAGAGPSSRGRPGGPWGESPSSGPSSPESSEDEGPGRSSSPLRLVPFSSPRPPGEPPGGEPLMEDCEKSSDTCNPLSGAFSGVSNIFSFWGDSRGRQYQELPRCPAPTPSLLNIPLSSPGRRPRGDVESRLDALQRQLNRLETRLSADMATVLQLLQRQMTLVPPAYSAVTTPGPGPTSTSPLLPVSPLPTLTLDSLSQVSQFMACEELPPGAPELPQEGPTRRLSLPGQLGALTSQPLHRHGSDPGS
In words: FP-based hERG binding assay (Invitrogen kit). On the procedure: Cardiovascular safety profile was entirely outsourced. hERG screening was performed at TCG Lifesciences Pvt. Ltd., Kolkata, West Bengal, India with FP-based hERG binding assay (Invitrogen kit).
On the technique in general: hERG is a cardiac potassium channel; its block is linked to QT prolongation.

Where [5] appears, read: E. coli ATCC 25922, read-out: E. coli MIC (converted).
Where [6] appears, read: read-out: MIC E. coli (ATCC 25922).
The mark [7] stands for this setting: HepG2, metabolic activity after 72 h treatment.

SMILES strings stand for the structures. Converted amounts (≈) assume the structure as drawn. Where two headings read alike, the source gives them in different places.

T1 sequence (P20831 whole entry): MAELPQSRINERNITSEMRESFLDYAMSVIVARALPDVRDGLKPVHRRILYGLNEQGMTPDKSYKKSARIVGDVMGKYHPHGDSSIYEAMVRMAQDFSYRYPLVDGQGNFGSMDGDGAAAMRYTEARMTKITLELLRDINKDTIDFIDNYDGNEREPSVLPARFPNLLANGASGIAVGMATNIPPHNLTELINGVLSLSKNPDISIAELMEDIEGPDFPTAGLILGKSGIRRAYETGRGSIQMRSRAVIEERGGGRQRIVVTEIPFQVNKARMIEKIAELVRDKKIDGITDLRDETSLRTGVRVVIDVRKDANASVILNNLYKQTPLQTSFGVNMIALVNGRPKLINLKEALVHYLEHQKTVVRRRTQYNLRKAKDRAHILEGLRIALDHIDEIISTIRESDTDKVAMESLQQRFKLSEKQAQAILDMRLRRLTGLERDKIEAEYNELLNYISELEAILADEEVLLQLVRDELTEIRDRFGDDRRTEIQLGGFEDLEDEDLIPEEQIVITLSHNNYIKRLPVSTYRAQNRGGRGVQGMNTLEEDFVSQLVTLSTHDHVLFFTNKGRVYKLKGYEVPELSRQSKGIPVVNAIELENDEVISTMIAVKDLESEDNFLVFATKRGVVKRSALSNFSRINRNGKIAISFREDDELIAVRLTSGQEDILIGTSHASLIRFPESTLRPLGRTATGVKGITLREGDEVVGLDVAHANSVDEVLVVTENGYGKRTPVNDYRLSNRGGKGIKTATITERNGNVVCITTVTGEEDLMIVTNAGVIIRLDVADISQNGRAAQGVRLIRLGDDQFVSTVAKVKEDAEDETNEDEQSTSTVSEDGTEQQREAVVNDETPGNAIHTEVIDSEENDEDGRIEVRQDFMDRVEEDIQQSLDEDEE
T1 sequence (P0A0K8 whole entry partner): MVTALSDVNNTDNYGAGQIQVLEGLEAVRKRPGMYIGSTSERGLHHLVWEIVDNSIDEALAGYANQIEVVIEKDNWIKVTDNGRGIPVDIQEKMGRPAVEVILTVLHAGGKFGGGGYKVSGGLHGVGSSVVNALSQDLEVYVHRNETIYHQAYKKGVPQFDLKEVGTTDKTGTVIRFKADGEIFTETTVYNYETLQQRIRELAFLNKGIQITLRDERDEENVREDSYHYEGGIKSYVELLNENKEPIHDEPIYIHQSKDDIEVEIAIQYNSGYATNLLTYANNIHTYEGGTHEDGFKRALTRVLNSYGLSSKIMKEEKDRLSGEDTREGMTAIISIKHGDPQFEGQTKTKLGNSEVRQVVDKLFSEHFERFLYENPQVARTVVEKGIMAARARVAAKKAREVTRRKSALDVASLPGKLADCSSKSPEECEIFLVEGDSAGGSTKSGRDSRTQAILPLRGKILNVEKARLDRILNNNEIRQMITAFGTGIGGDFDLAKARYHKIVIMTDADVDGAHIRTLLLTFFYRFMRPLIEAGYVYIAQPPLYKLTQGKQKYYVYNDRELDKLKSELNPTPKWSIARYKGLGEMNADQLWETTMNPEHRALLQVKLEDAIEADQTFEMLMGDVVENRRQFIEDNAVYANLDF

What is called IC50 is the midpoint of a concentration-inhibition curve. As usually defined, the MIC is the lowest concentration found to suppress growth. On to `COc1ccc2nccc(CCN3CCC(NCc4ccc(I)cc4)CC3)c2n1` [Compound 15], for which the half-maximal inhibitory concentration (IC50) at S. aureus DNA gyrase [1] was 11 ± 3 nM; in the test on HepG2 (HepG2, 72 h, metabolic activity after 72 h treatment) it was approximately 10000 nM. Also, the MIC in the test on E. coli (ATCC 25922) (setting [5]) is 3.98 µM; in the test on E. coli (ATCC 25922) (range over E. coli strains, read-out: MIC E. coli), 0.25 to 2 µg/mL; with E. coli (ATCC 25922) (setting [6]), 2 µg/mL; in test [2], 32 µg/mL (≈ 63.7 µM).

As to `COc1ccc2nccc(CCN3CCC(NCc4ccc(C(F)(F)F)nc4)CC3)c2n1` [Compound 21, 1-(2-(6-Methoxy-1,5-naphthyridin-4-yl)ethyl)-N-((6-(trifluoromethyl)pyridin-3-yl)methyl)piperidin-4-amine], the “LE DNA Gyrase S. aureus” value on S. aureus DNA gyrase [3] is on record as 0.29. Further, the IC50 against S. aureus DNA gyrase [3] was 160 ± 20 nM; with HepG2 (setting [7]), more than 50000 nM; in test [4], 1970 nM. Moreover, the MIC in the test on E. coli (ATCC 25922) (setting [5]) was 71.8 µM; in the test with E. coli (ATCC 25922) (setting [6]), 32 µg/mL; in test [2], more than 128 µg/mL.

As for `COc1ccc(CNC2CCN(CCc3ccnc4ccc(OC)nc34)CC2)cn1` [Compound 22, 1-(2-(6-Methoxy-1,5-naphthyridin-4-yl)ethyl)-N-((6-methoxypyridin-3-yl)methyl)piperidin-4-amine], on S. aureus DNA gyrase [3], the “LE DNA Gyrase S. aureus” value is 0.30. The IC50 was found to be 340 ± 50 nM at S. aureus DNA gyrase [3], 32030 ± 300 nM in the test with HepG2 (setting [7]) and 3050 nM in test [4]. Further, the minimum inhibitory concentration (MIC) is 38.1 µM in the test on E. coli (ATCC 25922) (setting [5]), 16 µg/mL in the test with E. coli (ATCC 25922) (setting [6]) and more than 128 µg/mL in test [2].

The values above are taken from article PMC8300687, “A Fine-Tuned Lipophilicity/Hydrophilicity Ratio Governs Antibacterial Potency and Selectivity of Bifurcated Halogen Bond-Forming NBTIs” (Antibiotics, 2021).
